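96-well plates; 48 h exposure; 5 concentrations. Endpoints by linear interpolation between flanking doses. Not reached: highest tested concentration assigned. TGI: concentration producing complete growth inhibition.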
Key:
Assay in all cases: NCI-60 cell line screen, 48 h
[1] = system: OVCAR-8 ovarian
[2] = system: SNB-19 CNS
[3] = system: CCRF-CEM leukemia
[4] = system: NCI/ADR-RES ovarian
[5] = system: BT-549 breast
[6] = system: SF-295 CNS
[7] = system: K-562 leukemia
[8] = system: MALME-3M melanoma
[9] = system: HL-60(TB) leukemia
[10] = system: HOP-62 NSCLC
[11] = system: SR leukemia
[12] = system: UACC-62 melanoma
[13] = system: IGROV1 ovarian
[14] = system: HCT-116 colon
[15] = system: UACC-257 melanoma
[16] = system: SK-MEL-2 melanoma
[17] = system: NCI-H522 lung
[18] = system: OVCAR-3 ovarian
[19] = system: ACHN renal
[20] = system: SF-539 CNS
[21] = system: HS 578T breast
[22] = system: RXF 393 renal
[23] = system: UO-31 renal
[24] = system: RPMI-8226 leukemia
[25] = system: SNB-75 CNS
[26] = system: T-47D breast
[27] = system: 786-0 renal
[28] = system: HCT-15 colon
[29] = system: CAKI-1 renal
[30] = system: NCI-H226 lung
[31] = system: HOP-92 NSCLC
[32] = system: EKVX NSCLC
[33] = system: COLO 205 colon
[34] = system: SF-268 CNS
[35] = system: HT29 colon
[36] = system: MCF7 breast
[37] = system: MDA-N
[38] = system: A498 renal
[39] = system: MDA-MB-435
[40] = system: A549 NSCLC
[41] = system: LOX IMVI melanoma
[42] = system: SK-OV-3 ovarian
[43] = system: TK-10 renal
[44] = system: DU-145 prostate
[45] = system: SK-MEL-28 melanoma
[46] = system: MDA-MB-231 breast
[47] = system: M14 melanoma
[48] = system: SW-620 colon
[49] = system: SK-MEL-5 melanoma
[50] = system: KM12 colon
[51] = system: OVCAR-5 ovarian
[52] = system: NCI-H23 lung
[53] = system: SN12C renal
[54] = system: MOLT-4 leukemia
[55] = system: NCI-H460 lung
[56] = system: U251 CNS
[57] = system: OVCAR-4 ovarian
[58] = system: HCC-2998 colon

## Cn1c(N)c(Cc2ccc(Cl)cc2)c(=O)[nH]c1=O
[1]
  TGI: > 100 µM
[2]
  TGI: > 100 µM
[3]
  TGI: > 100 µM
[4]
  TGI: > 100 µM
[5]
  TGI: > 100 µM
[6]
  TGI: > 100 µM
[7]
  TGI: > 100 µM
[8]
  TGI: > 100 µM
[9]
  TGI: > 100 µM
[10]
  TGI: > 100 µM
[11]
  TGI: > 100 µM
[12]
  TGI: > 100 µM
[13]
  TGI: > 100 µM
[14]
  TGI: > 100 µM
[15]
  TGI: > 100 µM
[16]
  TGI: > 100 µM
[17]
  TGI: > 100 µM
[18]
  TGI: > 100 µM
[19]
  TGI: > 100 µM
[20]
  TGI: > 100 µM
[21]
  TGI: > 100 µM
[22]
  TGI: > 100 µM
[23]
  TGI: > 100 µM
[24]
  TGI: > 100 µM
[25]
  TGI: > 100 µM
[26]
  TGI: > 100 µM
[27]
  TGI: > 100 µM
[28]
  TGI: > 100 µM
[29]
  TGI: > 100 µM
[30]
  TGI: > 100 µM
[31]
  TGI: > 100 µM
[32]
  TGI: > 100 µM
[33]
  TGI: > 100 µM
[34]
  TGI: > 100 µM
[35]
  TGI: > 100 µM
[36]
  TGI: > 100 µM
[37]
  TGI: > 100 µM
[38]
  TGI: > 100 µM
[39]
  TGI: > 100 µM
[40]
  TGI: > 100 µM
[41]
  TGI: > 100 µM
[42]
  TGI: > 100 µM
[43]
  TGI: > 100 µM
[44]
  TGI: > 100 µM
[45]
  TGI: > 100 µM
[46]
  TGI: > 100 µM
[47]
  TGI: > 100 µM
[48]
  TGI: > 100 µM
[49]
  TGI: > 100 µM
[50]
  TGI: > 100 µM
[51]
  TGI: > 100 µM
[52]
  TGI: > 100 µM
[53]
  TGI: > 100 µM
[54]
  TGI: > 100 µM

## CC(C)=C1C(=O)c2c(Cl)sc(Cl)c2C1=O
[1]
  TGI: 38.3 µM
[3]
  TGI: > 100 µM
[4]
  TGI: 54.5 µM
[5]
  TGI: 42.9 µM
[6]
  TGI: > 100 µM
[7]
  TGI: > 100 µM
[8]
  TGI: 44.5 µM
[9]
  TGI: 90.7 µM
[10]
  TGI: > 100 µM
[11]
  TGI: > 100 µM
[12]
  TGI: 38.3 µM
[55]
  TGI: > 100 µM
[13]
  TGI: 46 µM
[14]
  TGI: 33 µM
[15]
  TGI: 43 µM
[16]
  TGI: 50.6 µM
[17]
  TGI: 32.6 µM
[18]
  TGI: 75.1 µM
[19]
  TGI: 40.8 µM
[20]
  TGI: 50.5 µM
[21]
  TGI: 80.2 µM
[23]
  TGI: 60.4 µM
[56]
  TGI: 46.3 µM
[25]
  TGI: 59.9 µM
[26]
  TGI: 97.6 µM
[27]
  TGI: 74.9 µM
[28]
  TGI: 43.3 µM
[29]
  TGI: 32.7 µM
[30]
  TGI: > 100 µM
[31]
  TGI: 45.5 µM
[32]
  TGI: 81.1 µM
[33]
  TGI: 38.2 µM
[34]
  TGI: 79.5 µM
[35]
  TGI: 67.8 µM
[36]
  TGI: > 100 µM
[37]
  TGI: 64 µM
[57]
  TGI: 34.5 µM
[38]
  TGI: > 100 µM
[39]
  TGI: 39 µM
[40]
  TGI: 81.8 µM
[41]
  TGI: 34.2 µM
[42]
  TGI: > 100 µM
[43]
  TGI: 56.7 µM
[44]
  TGI: 62.1 µM
[45]
  TGI: 58.3 µM
[46]
  TGI: 57.4 µM
[47]
  TGI: 37.9 µM
[48]
  TGI: 70.5 µM
[49]
  TGI: > 100 µM
[50]
  TGI: 33.8 µM
[51]
  TGI: > 100 µM
[52]
  TGI: 36.6 µM
[53]
  TGI: 48 µM
[54]
  TGI: 94.7 µM

## COc1cc(/C=C2\N=C(c3ccccc3)N(c3cc4cc(Sc5ccccc5)ccc4[nH]3)C2=O)cc(OC)c1OC
[1]
  TGI: 41.5 µM
[2]
  TGI: > 75 µM
[3]
  TGI: 51.7 µM
[4]
  TGI: 59.1 µM
[5]
  TGI: 31.6 µM
[6]
  TGI: 73.2 µM
[7]
  TGI: 17.9 µM
[8]
  TGI: 11.1 µM
[9]
  TGI: 31.9 µM
[10]
  TGI: 41.2 µM
[11]
  TGI: 12.3 µM
[12]
  TGI: 24.5 µM
[55]
  TGI: 35.2 µM
[13]
  TGI: > 75 µM
[14]
  TGI: 23.9 µM
[15]
  TGI: 40.3 µM
[17]
  TGI: 12.9 µM
[18]
  TGI: 60.1 µM
[19]
  TGI: > 75 µM
[20]
  TGI: 24.6 µM
[21]
  TGI: > 75 µM
[22]
  TGI: 26.8 µM
[23]
  TGI: 48.9 µM
[25]
  TGI: 56.2 µM
[26]
  TGI: 34.2 µM
[27]
  TGI: 26 µM
[28]
  TGI: 50.2 µM
[29]
  TGI: > 75 µM
[30]
  TGI: 28.9 µM
[31]
  TGI: 29.8 µM
[58]
  TGI: 22.9 µM
[32]
  TGI: 67.5 µM
[33]
  TGI: 21.3 µM
[34]
  TGI: 18.2 µM
[35]
  TGI: 44.8 µM
[36]
  TGI: 25.1 µM
[37]
  TGI: 15.9 µM
[57]
  TGI: > 75 µM
[38]
  TGI: 42.9 µM
[39]
  TGI: 31 µM
[40]
  TGI: > 75 µM
[41]
  TGI: 22.2 µM
[42]
  TGI: > 75 µM
[44]
  TGI: 37.9 µM
[45]
  TGI: 35.8 µM
[47]
  TGI: 22.8 µM
[48]
  TGI: 68 µM
[49]
  TGI: 20.4 µM
[50]
  TGI: 56.8 µM
[51]
  TGI: > 75 µM
[52]
  TGI: > 75 µM
[53]
  TGI: 52.6 µM
[54]
  TGI: 26.9 µM

— PubChem BioAssay (NCI)
